The record followed here is patent publication US9624241B2 (Incyte Corporation, priority 2013, dated 2017).

The term IC50 denotes the concentration needed to halve the response being measured.

Where a name gives a salt, the structure may show the parent alone. Where only a bound is given, the exact number is not on record here.

Assay type in all cases: binding
For experiment [1], the target named is T1, BRD4-BD2 (Homo sapiens (Human), UniProt O60885). The experiment in a line: BRD4 AlphaScreen Assay (Example A1), BRD4-BD2. The settings on record: Assay A1, 20 nM BRD4-BD2, 50 nM H4Ac4 peptide; read-out: BRD4 BD-2 enzyme IC50. The procedure: (§1) BRD4-BD1 and BRD4-BD2 assays were conducted in white 384-well polystyrene plate in a final volume of 20 μL for BD1 and 40 μL for BD2. Inhibitors were first serially diluted in DMSO and added to the plate wells before the addition of other reaction components. […] After plate sealing, the plate was incubated in the dark at room temperature for 75 min. before reading on a PHERAstar FS plate reader (BMG Labtech). IC50 determination was performed by fitting the curve of percent control activity versus the log of the inhibitor concentration using the GraphPad Prism 5.0 software.
(In Alpha technology, singlet oxygen from a donor bead excites a nearby acceptor bead.)

In experiment [2] the target is T2, BRD4-BD1 (Homo sapiens (Human), UniProt O60885). The experiment in a line: BRD4 AlphaScreen Assay (Example A1), BRD4-BD1. As to conditions: Assay A1, 3.8 nM BRD4-BD1, 50 nM H4Ac4 peptide; read-out: BRD4 BD-1 enzyme IC50. The procedure:
as §1

Experiment [3] addresses T1, BRD4-BD2. The experiment in a line: BRD4 AlphaScreen Assay (Example A2), BRD4-BD2. The settings on record: Assay A2, AlphaScreen, BRD4-BD2; read-out: BRD4 BD-2 enzyme IC50. The procedure, abridged:
(§2)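 Displacement of 50 nM biotinylated tetra-acetylated histone H4 peptide from BRD4 BD1 or BD2 (<1 nM) in Tris-HCl pH 7.5 buffer with DTT. Inhibitors serially diluted in DMSO, added first, then incubated 75 min in the dark at room temperature before AlphaScreen read. IC50 fitted from percent control activity versus log concentration.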

Experiment [4] deals with T2, BRD4-BD1. The experiment in a line: BRD4 AlphaScreen Assay (Example A2), BRD4-BD1. As to conditions: Assay A2, AlphaScreen, BRD4-BD1; read-out: BRD4 BD-1 enzyme IC50. The procedure, abridged:
as §2

With `Cc1noc(C)c1-c1ccc2nc(N3CCCC3)n3c2c1OCC3c1ccccc1` (stereo not drawn) [Example 54, 7-(3,5-Dimethylisoxazol-4-yl)-4-phenyl-2-pyrrolidin-1-yl-4,5-dihydroimidazo[1,5,4-de][1,4]benzoxazine], the IC50 at BRD4-BD2 [1] and at BRD4-BD1 [2] was less than 100 nM throughout.
For `Cc1noc(C)c1-c1ccc2nc(NC(C)(C)CO)n3c2c1OCC3c1ccccc1` (stereo not drawn) [Example 33, 2-{[7-(3,5-Dimethylisoxazol-4-yl)-4-phenyl-4,5-dihydroimidazo[1,5,4-de][1,4]benzoxazin-2-yl]amino}-2-methylpropan-1-ol], the IC50 at BRD4-BD2 [1] was 100 to 1000 nM; on BRD4-BD1 [2] it was 1000 to 10000 nM.
For `Cc1noc(C)c1-c1ccc2[nH]c(=O)n3c2c1OCC3c1ccc(F)cc1` (stereo not drawn) [Example 49, 7-(3,5-Dimethylisoxazol-4-yl)-4-(4-fluorophenyl)-4,5-dihydroimidazo[1,5,4-de][1,4]benzoxazin-2(1H)-one], in that order: less than 100 nM and less than 100 nM.
For `Cc1noc(C)c1-c1ccc2nc(NC(C)C)n3c2c1OCC3c1ccccc1` (stereo not drawn) [Example 25, 7-(3,5-Dimethylisoxazol-4-yl)-N-isopropyl-4-phenyl-4,5-dihydroimidazo[1,5,4-de][1,4]benzoxazin-2-amine], in that order: less than 100 nM and less than 100 nM.
For the compound `CCNc1nc2ccc(-c3c(C)noc3C)c3c2n1C(c1ccccc1)CO3` (stereo not drawn) [Example 27, 7-(3,5-Dimethylisoxazol-4-yl)-N-ethyl-4-phenyl-4,5-dihydroimidazo[1,5,4-de][1,4]benzoxazin-2-amine], the IC50 at BRD4-BD2 [1] and at BRD4-BD1 [2] was less than 100 nM in each case.
Take `Cc1noc(C)c1-c1ccc2nc(NC(C)CO)n3c2c1OCC3c1ccccc1` (single isomer, unassigned) [Example 31, 2-{[7-(3,5-Dimethylisoxazol-4-yl)-4-phenyl-4,5-dihydroimidazo[1,5,4-de][1,4]benzoxazin-2-yl]amino}propan-1-ol]: the IC50 on BRD4-BD2 [1] and on BRD4-BD1 [2] was less than 100 nM each time.
With `Cc1noc(C)c1-c1ccc2nc(N(C)C)n3c2c1OCC3c1ccccc1` (stereo not drawn) [Example 28, 7-(3,5-Dimethylisoxazol-4-yl)-N,N-dimethyl-4-phenyl-4,5-dihydroimidazo[1,5,4-de][1,4]benzoxazin-2-amine], the IC50 on BRD4-BD2 [1] and at BRD4-BD1 [2] was less than 100 nM in each case.
Take `Cc1noc(C)c1-c1ccc2nc(N3CCCC(O)C3)n3c2c1OCC3c1ccccc1` (stereo not drawn) [Example 58, 1-[7-(3,5-Dimethylisoxazol-4-yl)-4-phenyl-4,5-dihydroimidazo[1,5,4-de][1,4]benzoxazin-2-yl]piperidin-3-ol]: the IC50 at BRD4-BD2 [1] and on BRD4-BD1 [2] was less than 100 nM in each case.
On to `Cc1n[nH]c(C)c1-c1ccc2[nH]c(=O)n3c2c1OCC3c1ccccc1` (stereo not drawn) [Example 11, 7-(3,5-Dimethyl-1H-pyrazol-4-yl)-4-phenyl-4,5-dihydroimidazo[1,5,4-de][1,4]benzoxazin-2(1H)-one], for which the IC50 on BRD4-BD2 [1] is 100 to 1000 nM; on BRD4-BD1 [2], 1000 to 10000 nM.
For `Cc1noc(C)c1-c1ccc2[nH]c(=O)n3c2c1OCC3C1CCCO1` (single isomer, unassigned) [Example 18B, 7-(3,5-Dimethylisoxazol-4-yl)-4-(tetrahydrofuran-2-yl)-4,5-dihydroimidazo[1,5,4-de][1,4]benzoxazin-2(1H)-one], in that order: less than 100 nM and 100 to 1000 nM.
With `Cc1noc(C)c1-c1ccc2c3c1OCC(c1ccccc1)n3c(=O)n2C` (stereo not drawn) [Example 2, 7-(3,5-Dimethylisoxazol-4-yl)-1-methyl-4-phenyl-4,5-dihydroimidazo[1,5,4-de][1,4]benzoxazin-2(1H)-one], the IC50 on BRD4-BD2 [1] and on BRD4-BD1 [2] was less than 100 nM in each case.
For the compound `Cc1noc(C)c1-c1ccc2nc(N3CCC(O)CC3)n3c2c1OCC3c1ccccc1` (stereo not drawn) [Example 57, 1-[7-(3,5-Dimethylisoxazol-4-yl)-4-phenyl-4,5-dihydroimidazo[1,5,4-de][1,4]benzoxazin-2-yl]piperidin-4-ol], the IC50 at BRD4-BD2 [1] and at BRD4-BD1 [2] was less than 100 nM throughout.
For the compound `Cc1noc(C)c1-c1ccc2[nH]c(=O)n3c2c1OCC3c1cccnc1` (stereo not drawn) [Example 5, 7-(3,5-Dimethylisoxazol-4-yl)-4-pyridin-3-yl-4,5-dihydroimidazo[1,5,4-de][1,4]benzoxazin-2(1H)-one], the IC50 at BRD4-BD2 [1] and at BRD4-BD1 [2] was less than 100 nM in each case.
For `Cc1noc(C)c1-c1ccc2nc(N3CC(O)C3)n3c2c1OCC3c1ccccc1` (stereo not drawn) [Example 59, 1-[7-(3,5-Dimethylisoxazol-4-yl)-4-phenyl-4,5-dihydroimidazo[1,5,4-de][1,4]benzoxazin-2-yl]azetidin-3-ol], the IC50 on BRD4-BD2 [1] and on BRD4-BD1 [2] was less than 100 nM in each case.
Consider `COc1ccccc1C1COc2c(-c3c(C)noc3C)ccc3[nH]c(=O)n1c23` (stereo not drawn) [Example 7, 7-(3,5-Dimethylisoxazol-4-yl)-4-(2-methoxyphenyl)-4,5-dihydroimidazo[1,5,4-de][1,4]benzoxazin-2(1H)-one], for which the IC50 at BRD4-BD2 [1] and on BRD4-BD1 [2] was less than 100 nM each time.
With `Cn1nccc1-c1cc(Br)c2[nH]c(=O)n3c2c1OCC3c1ccccc1` (stereo not drawn) [Example 36, 9-Bromo-7-(1-methyl-1H-pyrazol-5-yl)-4-phenyl-4,5-dihydroimidazo[1,5,4-de][1,4]benzoxazin-2(1H)-one], the values for the IC50 on BRD4-BD2 [1] and at BRD4-BD1 [2] were less than 100 nM and 100 to 1000 nM, respectively.
As to `CNc1nc2ccc(-c3c(C)noc3C)c3c2n1C(c1ccccc1)CO3` (stereo not drawn) [Example 26, 7-(3,5-Dimethylisoxazol-4-yl)-N-methyl-4-phenyl-4,5-dihydroimidazo[1,5,4-de][1,4]benzoxazin-2-amine], the IC50 on BRD4-BD2 [1] and at BRD4-BD1 [2] was less than 100 nM throughout.
With `Cc1n[nH]cc1-c1ccc2[nH]c(=O)n3c2c1OCC3c1ccccc1` (stereo not drawn) [Example 12, 7-(3-Methyl-1H-pyrazol-4-yl)-4-phenyl-4,5-dihydroimidazo[1,5,4-de][1,4]benzoxazin-2(1H)-one], the IC50 on BRD4-BD2 [1] was less than 100 nM; on BRD4-BD1 [2] it was 100 to 1000 nM.
With `Cc1noc(C)c1-c1ccc2[nH]c(=O)n3c2c1OC(C)C3c1ccccc1` (stereo not drawn) [Example 3, 7-(3,5-Dimethylisoxazol-4-yl)-5-methyl-4-phenyl-4,5-dihydroimidazo[1,5,4-de][1,4]benzoxazin-2(1H)-one], the IC50 at BRD4-BD2 [1] and on BRD4-BD1 [2] was less than 100 nM each time.
With `Cn1nccc1-c1ccc2[nH]c(=O)n3c2c1OCC3c1ccccc1` (stereo not drawn) [Example 35, 7-(1-Methyl-1H-pyrazol-5-yl)-4-phenyl-4,5-dihydroimidazo[1,5,4-de][1,4]benzoxazin-2(1H)-one], the values for the IC50 on BRD4-BD2 [1] and at BRD4-BD1 [2] were less than 100 nM and 100 to 1000 nM, respectively.
For `Cc1noc(C)c1-c1ccc2[nH]c(=O)n3c2c1OCC3c1ccccc1OCC(=O)N(C)C` (stereo not drawn) [Example 51, 2-{2-[7-(3,5-Dimethylisoxazol-4-yl)-2-oxo-1,2,4,5-tetrahydroimidazo[1,5,4-de][1,4]benzoxazin-4-yl]phenoxy}-N,N-dimethylacetamide], in that order: less than 100 nM and less than 100 nM.
Regarding `Cc1cnn(C)c1-c1ccc2[nH]c(=O)n3c2c1OCC3c1ccccn1` (stereo not drawn) [Example 44, 7-(1,4-Dimethyl-1H-pyrazol-5-yl)-4-pyridin-2-yl-4,5-dihydroimidazo[1,5,4-de][1,4]benzoxazin-2(1H)-one], the IC50 lay within 100 to 1000 nM on BRD4-BD2 [3] and 1000 to 10000 nM at BRD4-BD1 [4].
For `Cc1noc(C)c1-c1ccc2nc(C3CCN(S(C)(=O)=O)CC3)n3c2c1OC[C@@H]3c1ccccn1` [Example 112, (4S)-7-(3,5-dimethylisoxazol-4-yl)-2-[1-(methylsulfonyl)piperidin-4-yl]-4-pyridin-2-yl-4,5-dihydroimidazo[1,5,4-de][1,4]benzoxazine], in that order: less than 100 nM and less than 100 nM.
`Cc1noc(C)c1-c1cc(F)c2nc(N3CCC(O)C3)n3c2c1OCC3c1cccnc1` (stereo not drawn) [Example 157, 1-[7-(3,5-Dimethylisoxazol-4-yl)-9-fluoro-4-pyridin-3-yl-4,5-dihydroimidazo[1,5,4-de][1,4]benzoxazin-2-yl]pyrrolidin-3-ol]: the IC50 at BRD4-BD2 [3] and on BRD4-BD1 [4] was less than 100 nM each time.
On to `Cc1noc(C)c1-c1ccc2nc(N3CC(O)C3)n3c2c1OCC3c1cccnc1` (single isomer, unassigned) [Example 160B, 1-[7-(3,5-Dimethylisoxazol-4-yl)-4-pyridin-3-yl-4,5-dihydroimidazo[1,5,4-de][1,4]benzoxazin-2-yl]azetidin-3-ol], for which the concentration for half-maximal inhibition (IC50) at BRD4-BD2 [3] and on BRD4-BD1 [4] was 1000 to 10000 nM each time.
Turning to `Cc1noc(C)c1-c1ccc2[nH]c(=O)n3c2c1OCC3c1ccc(F)cn1` (stereo not drawn) [Example 19, 7-(3,5-Dimethylisoxazol-4-yl)-4-(5-fluoropyridin-2-yl)-4,5-dihydroimidazo[1,5,4-de][1,4]benzoxazin-2(1H)-one], the IC50 on BRD4-BD2 [3] and on BRD4-BD1 [4] was less than 100 nM each time.
In the case of `COn1c(=O)n2c3c(c(-c4c(C)noc4C)ccc31)CCC2c1ccccn1` (stereo not drawn) [Example 122, 7-(3,5-Dimethylisoxazol-4-yl)-1-methoxy-4-pyridin-2-yl-5,6-dihydro-4H-imidazo[4,5,1-ij]quinolin-2(1H)-one trifluoroacetate], the IC50 was less than 100 nM on BRD4-BD2 [3] and 100 to 1000 nM at BRD4-BD1 [4].
